“Also recorded” adds a separate entry of the source. Where two headings read alike, the source gives them in different places.
Legend:
MPO = conditions: ref [31]; cited from earlier work
Text: The positively charged character of arginine played a key role, since substitu ...

MPO active site = conditions: computational docking; ref [31]; cited from earlier work
Text: To react with MPO, a peptide residue has to closely approach to the active site. The active site heme group of MPO is located in a crevice (~15 Å in depth) with a channel (~10 Å in diameter) which opens into the distal cavity. Only H2O2 and small anions have ready access to the iron atom. Other compounds that are oxidized by MPO via the peroxidase cycle bind in the binding site at the entrance to the distal cavity. […] Despite concerns rais ...

myeloperoxidase (MPO) [1] = molecular target: T1, myeloperoxidase (MPO) (Homo sapiens, UniProt P05164); assay: MPO peroxidase activity (Amplex Red assay); assay type: biochemical; conditions: 0.8–50 μM peptide, 8 nM MPO heme, 50 μM Amplex Red, 25 μM H2O2, 50 mM K-phosphate pH 7.4
T1 construct: Native myeloperoxidase (MPO) was obtained from human leukocyte extract by successive chromatography on heparin-Sepharose and phenyl-agarose; from tissue; host or cells: human leukocyte extract
Experimental: MPO peroxidase activity was evaluated fluorometrically using Amplex Red^TM reagent which was oxidized by MPO to the fluorescent resorufin (λex = 530 nm, λem = 590 nm). The assay was performed in 96-plate format. The final reaction mixture in 50 mM K-phosphate buffer (pH 7.4) was as follows: MPO, 8 nM heme; peptide, […]; H2O2, 25 μM; Amplex Red reagent, 50 μM. MPO was preincubated with peptides for 5 min in a volume of 100 μl. Then, Amplex Red was added, and the enzymatic reaction was initiated by adding H2O2 (a final probe volume of 200 μL per well). The fluorescence measurement was made with a CLARIOstar multimodal plate reader (BMG Labtech, Ortenberg, Germany) at 5 min after the beginning of the reaction. To determine the type of CAMP-induced inhibition, KM and Vmax were obtained by varying substrates of MPO: Amplex Red in a final concentration from 1 to 62.5 μM, or H2O2 in a final concentration from 0.625 to 20 μM.
(§1) The Hannes-Wolf plots were made as ([Substrate]/V = f([Substrate]). KM was equal in magnitude to the intercept made on the abscissa axis by the approximating straight line; Vmax was calculated as a reciprocal value of the straight-line slope. The inhibition constant (Ki) for noncompetitive inhibition was calculated as follows: Ki = [I]/((Vmax − Vmax’)/Vmax’); Ki for competitive inhibition was calculated as follows: Ki = [I]/((KM’ − KM)/KM); Ki for mixed inhibition was calculated as follows: Ki = [I]/(((KM’ − KM)/KM)^2 + ((Vmax − Vmax’)/Vmax’))^2)^0.5; and Ki for uncompetitive inhibition was calculated as follows: Ki = [I]/(((KM − KM’)/KM’)^2 + ((Vmax – Vmax’)/Vmax’))^2)^0.5, where [I]—concentration of inhibitor (CAMP), KM—Michaelis constant without inhibitor, Vmax—maximal rate without inhibitor, KM’—Michaelis constant in the presence of inhibitor, Vmax’—maximal rate in the presence of inhibitor.
From the experiments with varying concentrations of H2O2 (0.01–200 μM) and Amplex Red (6.25–100 μM), the optimal concentrations of 25 μM H2O2 and 50 μM Amplex Red were chosen for further work. The 0.8–50 μM concentration range (corresponding to 100–6250 peptide molecules per heme) was used to determine the concentration dependence of the effect of CAMPs on peroxidase activity of MPO.

myeloperoxidase (MPO) [2] = molecular target: T1, myeloperoxidase (MPO); assay: MPO chlorinating activity (Celestine Blue B assay); assay type: biochemical; conditions: 0.008–8 μM peptide, 0.8 nM MPO heme, 200 μM CB, 150 mM NaCl, 50 μM H2O2, 50 mM Na-acetate pH 5.5
Experimental: MPO chlorinating activity was evaluated fluorometrically using Celestine Blue B (CB) which was oxidized to fluorescent glycol (λex = 487 nm, λem = 578 nm) by taurine N-chloramine produced in the reaction of taurine with HOCl generated by MPO [39]. The assay was performed in 96-plate format. MPO was preincubated with peptides for 5 min in a volume of 100 μL, with the concentrations being: MPO, 1.6 nM heme and peptide, 16 nM–16 μM. Then, 100 μL aliquots of CB-containing mix (CB, 400 µM; H2O2, 100 µM; taurine, 4 mM; KI, 10 µM; NaCl, 300 mM; 50 mM Na-acetate buffer, pH 5.5) were added to MPO/peptide and to 100 μL of HOCl standards (0–150 μM). The fluorescence measurement was made with a CLARIOstar multimodal plate reader (BMG Labtech, Ortenberg, Germany) at 15 min after the reaction started. Fluorescence intensity detected for HOCl standards of HOCl was used for calculating the chlorinating activity as mole of HOCl per mole of MPO heme per second. To determine the type of CAMP-induced inhibition, KM and Vmax were obtained by varying substrates of MPO: NaCl in a final concentration from 25 to 300 mM, or H2O2 in a final concentration from 5 to 80 µM.
as §1
Chlorinating activity is a distinctive feature of MPO as compared with other peroxidases and it is an important property, enabling MPO to combat microbes. We tested whether the inhibitory effects of pept_1545 and Hm-AMP8 on peroxidase activity extend to MPO chlorinating activity. Chlorinating activity was measured using a fluorometric CB-based assay. To determine the concentration dependence of the effect of CAMPs on MPO chlorinating activity, the 0.008–8 μM concentration range (corresponding to 10–10,000 peptide molecules per heme) was used.

myeloperoxidase (MPO) [3] = molecular target: T1, myeloperoxidase (MPO); assay: MPO heme absorbance spectra (Compound II formation and decay, MPO turnover); assay type: biochemical; conditions: 2 μM MPO heme, 100 μM H2O2, 10 mM Na-phosphate pH 7.4; all concentrations
Experimental: Native myeloperoxidase (MPO) was obtained from human leukocyte extract by successive chromatography on heparin-Sepharose and phenyl-agarose followed by gel-filtration on a Sephacryl S-200 HR, as previously described. The Reinheit Zahl value (A430 nm/A280 nm) for the purified protein was 0.85. The MPO concentration was determined as the heme concentration measured spectrophotometrically at 430 nm with a molar extinction coefficient of 91,000 M^−1 cm^−1 [35].
Spectra of MPO were recorded on a Cary 50 Bio UV-Vis spectrophotometer (Varian, Mulgrave, Australia). Experiments were performed with Eppendorf UVette plastic UV/Vis cuvettes (Hamburg, Germany). An MPO concentration was 2 μM heme. MPO was mixed with CAMP in 10 mM Na-phosphate buffer (pH 7.4) supplemented with 0.2 mM DTPA. H2O2 was added as a microvolume of concentrated solution (100 μM final).
To elucidate the influence of CAMPs on MPO catalytic activity, we analyzed absorbance spectral changes for MPO activated by H2O2 in the presence of peptides. The spectra were obtained with 2 μM MPO heme and 100 μM H2O2 in 10 mM Na-phosphate buffer, pH 7.4. All reactions in these and further experiments were performed in buffers supplemented with 0.2 mM diethylenetriaminepentaacetic acid (DTPA) to sequester free transition metal ions to prevent tyrosine and cysteine autooxidation.
Figure 2 Time courses of spectral absorbance changes at 430 nm (indicative of MPO ground state) and 455 nm (indicative of Compound II) in the absence and presence of cationic antimicrobial peptides (CAMPs) in the system MPO/H2O2. The name of CAMP is given in parentheses after the panel designation (A–D). H2O2 (100 µM) was added to MPO (2 µM heme) or MPO preincubated with peptides at different peptide/heme molar ratios for 5 min in 10 mM Na-phosphate buffer, pH 7.4. Spectra were taken before and 0.25 min, 5 min, 10 min, and so on after adding H2O2. The initial absorbance values (before H2O2 addition) are shown as a red square marker. […]

erythrocytes = conditions: PBS, 1 h, 37 °C, Triton X-100 = 100%
Experimental: Comparative evaluation of hemolytic activity of the cationic antimicrobial peptides (CAMPs) Hm-
AMP8, pept_1545, Hm-AMP1, and Hm-AMP2 using a hemolysis assay measuring hemoglobin released from
damaged cells. In each group of bars, the final peptide concentration from left to right is 12.5 μM, 25 μM, 50
μM, and 100 μM. For melittin, the left bar – 0.5 μM, and the right bar – 1 μM. A working erythrocyte suspension
(in PBS) was prepared so that its ten -fold dilution gave an optical density of 0.4 at 800 nm (about 30 × 10^6 cells/mL).
Erythrocytes (125 μL) were added to the same volume of PBS containing the peptide. Cells with PBS served as
negative control; cells with Triton X-100 served as positive control wh ich was set to 100%. After 1-h incubation
(with slight shaking) at 37 °C, the samples were centrifuged at 1000 × g for 10 min , the supernatant was
transferred to the wells of a microplate, and the absorbance of hemoglobin was measured by a Multiskan Ascent
plate reader (Thermo Electron Corporation, Vantaa, Finland), with a test wavelength of 414 nm and a
background wavelength of 690 nm. The hemolysis percentage was calculated using the following equation:
Hemolysis (%) = {(sample absorbance – negative control) / (positive control – negative control)} × 100. Data
shown are mean ± SD from three independent experiments using blood from three healthy volunteers, with […]

T1 sequence (P05164 279-745 limits assumed): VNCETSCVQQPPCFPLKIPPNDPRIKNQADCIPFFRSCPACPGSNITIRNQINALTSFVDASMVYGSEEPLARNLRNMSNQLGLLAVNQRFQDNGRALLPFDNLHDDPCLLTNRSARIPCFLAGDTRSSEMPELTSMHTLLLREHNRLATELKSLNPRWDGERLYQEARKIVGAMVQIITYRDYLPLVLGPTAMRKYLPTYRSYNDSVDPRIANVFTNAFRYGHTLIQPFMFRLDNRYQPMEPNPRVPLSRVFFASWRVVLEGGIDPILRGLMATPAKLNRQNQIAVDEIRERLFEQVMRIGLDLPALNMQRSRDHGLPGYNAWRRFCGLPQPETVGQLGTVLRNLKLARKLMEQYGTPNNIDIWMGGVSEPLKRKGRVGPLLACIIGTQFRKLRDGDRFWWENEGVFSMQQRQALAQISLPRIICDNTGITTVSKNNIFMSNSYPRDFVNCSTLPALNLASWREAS
T1 sequence (P05164 165-273 limits assumed): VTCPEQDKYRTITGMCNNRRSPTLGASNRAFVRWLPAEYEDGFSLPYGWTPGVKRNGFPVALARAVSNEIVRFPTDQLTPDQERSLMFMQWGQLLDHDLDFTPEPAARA

**Q.** With “GRRRRSVQWCA [antimicrobial peptide …, human lactoferrin-derived]” as the substance, how does the “inhibition of MPO” value (MPO) read?
**A.** The value was “inhibiting MPO activity”.

**Q.** And the “binding to MPO active site (docking)” value (MPO active site)?
**A.** The value was “binding of the peptide GRRRRSVQWCA to the edge of and within the cleft of the active site”.

**Q.** With RLKRFKRVALRREKTARNFRSIVS [Hm-AMP1] as the substance, how does the “effect on MPO peroxidase activity” value (myeloperoxidase (MPO) [1]) read?
**A.** The value was “no inhibition; also recorded: No effect”.

**Q.** And the “effect on MPO chlorinating activity” value (myeloperoxidase (MPO) [2])?
**A.** Its value is “no significant effect”.

**Q.** What about the “effect on H2O2-induced formation and decay of MPO Compound II / MPO turnover (summary)” value (myeloperoxidase (MPO) [3]) of the same substance?
**A.** Its value is “no significant effect on MPO cycling”.

**Q.** Which results are given for melittin?
**A.** Hemolysis (erythrocytes; 0.5 M (so in the source), three independent experiments): about 40%; Hemolysis (erythrocytes; 1 M (so in the source)): complete hemolysis

Reference: article PMC9774438, “Effects of Synthetic Short Cationic Antimicrobial Peptides on the Catalytic Activity of Myeloperoxidase, Reducing Its Oxidative Capacity” (Antioxidants, 2022)
